Measurements reported in US11524968B2, “Heterocyclic compound as a protein kinase inhibitor” (HK inno.N Corporation, priority 2017, dated 2022).

target: JAK1 (Homo sapiens (Human), UniProt P23458); test: Analysis of JAK1 activity inhibition ability (ADP-Glo Kinase Assay); assay type: biochemical; settings: JAK1 enzyme, ADP-Glo luminescence, ATP 250 uM, IRS-itide substrate, 30° C. 40 minutes; read-out: IC50
Outline: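 JAK1 enzyme, IRS-itide substrate (40 ng/mL) and 250 uM ATP, both as prepared in kinase buffer (Tris-HCl pH 7.5, MgCl2, BSA, DTT), reacted with compound 40 min at 30 °C. ADP formed was detected by ADP-Glo luminescence; IC50 is the concentration giving 50% inhibition versus control.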

JAK1, sequence (P23458 whole entry): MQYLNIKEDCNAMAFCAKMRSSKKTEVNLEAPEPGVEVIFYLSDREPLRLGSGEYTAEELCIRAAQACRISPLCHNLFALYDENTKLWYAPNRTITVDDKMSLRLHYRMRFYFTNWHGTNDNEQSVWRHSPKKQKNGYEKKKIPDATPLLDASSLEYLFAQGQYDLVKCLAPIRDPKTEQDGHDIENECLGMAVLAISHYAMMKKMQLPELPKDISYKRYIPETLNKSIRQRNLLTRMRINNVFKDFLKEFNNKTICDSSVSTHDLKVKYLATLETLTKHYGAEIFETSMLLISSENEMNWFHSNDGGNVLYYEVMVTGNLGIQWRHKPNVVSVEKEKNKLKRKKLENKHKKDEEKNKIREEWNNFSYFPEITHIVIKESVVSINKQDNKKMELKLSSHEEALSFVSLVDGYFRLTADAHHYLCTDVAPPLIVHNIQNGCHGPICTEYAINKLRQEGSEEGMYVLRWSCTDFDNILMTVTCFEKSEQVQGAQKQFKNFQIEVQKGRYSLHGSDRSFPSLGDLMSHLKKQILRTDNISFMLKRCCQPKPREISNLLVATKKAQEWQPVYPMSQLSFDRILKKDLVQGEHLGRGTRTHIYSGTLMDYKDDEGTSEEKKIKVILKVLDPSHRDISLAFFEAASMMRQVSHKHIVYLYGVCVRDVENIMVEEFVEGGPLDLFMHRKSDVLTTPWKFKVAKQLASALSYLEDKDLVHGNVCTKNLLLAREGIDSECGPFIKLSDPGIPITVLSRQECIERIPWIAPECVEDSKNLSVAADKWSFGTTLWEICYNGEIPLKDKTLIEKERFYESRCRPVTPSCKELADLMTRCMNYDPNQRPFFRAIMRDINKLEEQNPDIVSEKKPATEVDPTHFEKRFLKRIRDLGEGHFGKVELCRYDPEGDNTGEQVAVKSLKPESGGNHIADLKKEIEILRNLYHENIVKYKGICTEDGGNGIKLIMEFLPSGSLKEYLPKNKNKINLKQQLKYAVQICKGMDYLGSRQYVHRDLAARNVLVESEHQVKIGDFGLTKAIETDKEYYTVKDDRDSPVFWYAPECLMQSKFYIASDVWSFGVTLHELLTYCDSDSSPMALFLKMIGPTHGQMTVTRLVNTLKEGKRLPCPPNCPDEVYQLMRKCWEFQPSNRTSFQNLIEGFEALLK

First: O=C(Nc1cc(-c2ccc(NCC3CCCCC3)cc2)c2cc[nH]c2n1)C1CC1 [Example 471, N-(4-(4-((cyclohexylmethyl)amino)phenyl)-1H-pyrrolo[2,3-b]pyridin-6-yl)cyclopropanecarboxamide]
Second: CN(C1CC1)S(=O)(=O)Nc1ccc(-c2cc(NC(=O)C3CC3)nc3[nH]ccc23)cc1 [Example 217, N-(4-(4-((N-cyclopropyl-N-methylsulfamoyl)amino)phenyl)-1H-pyrrolo[2,3-b]pyridin-6-yl)cyclopropanecarboxamide]
The IC50 of the first is higher: > 200 nM for the first, < 20 nM for the second.

First: O=C(Nc1cc(-c2ccc(NS(=O)(=O)CC3CCOCC3)cc2)c2cc[nH]c2n1)C1CC1 [Example 55, N-(4-(4-(((tetrahydro-2H-pyran-4-yl)methyl)sulfonamido)phenyl)-1H-pyrrolo[2,3-b]pyridin-6-yl)cyclopropanecarboxamide]
Second: O=C(Nc1cc(-c2ccc(NS(=O)(=O)c3ccc4c(c3)CCO4)cc2)c2cc[nH]c2n1)C1CC1 [Example 22, N-(4-(4-((2,3-dihydrobenzofuran)-5-sulfonamido)phenyl)-1H-pyrrolo[2,3-b]pyridin-6-yl)cyclopropanecarboxamide]
The IC50 of the first is lower: < 20 nM for the first, 20 to 200 nM for the second. The first is the more potent here.

Going from O=C(CCC(F)(F)F)NC1CC=C(c2cc(NC(=O)C3CC3)nc3[nH]ccc23)CC1 (stereo not drawn) [Example 248, N-(4-(4-(4,4,4-trifluorobutanamido)cyclohex-1-en-1-yl)-1H-pyrrolo[2,3-b]pyridin-6-yl)cyclopropanecarboxamide] to N#CCCC(=O)N1CC=C(c2cc(NC(=O)C3CC3)nc3[nH]ccc23)CC1 [Example 252, N-(4-(1-(3-cyanopropanoyl)-1,2,3,6-tetrahydropyridin-4-yl)-1H-pyrrolo[2,3-b]pyridin-6-yl)cyclopropanecarboxamide], the IC50 falls from > 200 nM to < 20 nM.

Compared with CCOC(=O)N1CCN(C(=O)Cc2ccc(-c3cc(NC(=O)C4CC4)nc4[nH]ccc34)cc2)CC1 [Example 565, ethyl 4-(2-(4-(6-(cyclopropanecarboxamido)-1H-pyrrolo[2,3-b]pyridin-4-yl)phenyl)acetyl)piperazine-1-carboxylate], CC(=O)N1CCN(C(=O)Cc2ccc(-c3cc(NC(=O)C4CC4)nc4[nH]ccc34)cc2)CC1 [Example 543, N-(4-(4-(2-(4-acetylpiperazin-1-yl)-2-oxoethyl)phenyl)-1H-pyrrolo[2,3-b]pyridin-6-yl)cyclopropanecarboxamide] is higher in IC50: 20 to 200 nM for the first, > 200 nM for the second. The first is the more potent here.

First: O=C(Nc1cc(-c2ccc(NC3CCN(C(=O)c4cc(F)cc(F)c4)CC3)c(F)c2)c2cc[nH]c2n1)C1CC1 [Example 499, N-(4-(4-((1-(3,5-difluorobenzoyl)piperidin-4-yl)amino)-3-fluorophenyl)-1H-pyrrolo[2,3-b]pyridin-6-yl)cyclopropanecarboxamide]
Second: O=C(Nc1cc(-c2ccc(NC3CCN(C(=O)NCC(F)(F)F)CC3)cc2)c2cc[nH]c2n1)C1CC1 [Example 512, 4-((4-(6-(cyclopropanecarboxamido)-1H-pyrrolo[2,3-b]pyridin-4-yl)phenyl)amino)-N-(2,2,2-trifluoroethyl)piperidine-1-carboxamide]
The IC50 of the first is higher: > 200 nM for the first, 20 to 200 nM for the second.

First: O=C(Nc1cc(-c2ccc(NS(=O)(=O)c3ccc(Br)c(F)c3)cc2)c2cc[nH]c2n1)C1CC1 [Example 31, N-(4-(4-((4-bromo-3-fluorophenyl)sulfonamido)phenyl)-1H-pyrrolo[2,3-b]pyridin-6-yl)cyclopropanecarboxamide]
Second: O=C(Nc1cc(-c2ccc(NS(=O)(=O)c3ccc4c(c3)OCO4)cc2)c2cc[nH]c2n1)C1CC1 [Example 34, N-(4-(4-(benzo[d][1,3]dioxole-5-sulfonamido)phenyl)-1H-pyrrolo[2,3-b]pyridin-6-yl)cyclopropanecarboxamide]
The IC50 of the first is higher: 20 to 200 nM for the first, < 20 nM for the second.

N#Cc1ccc(S(=O)(=O)Nc2ccc(-c3cc(NC(=O)C4CC4)nc4[nH]ccc34)cc2)cc1 [Example 21, N-(4-(4-((4-cyanophenyl)sulfonamido)phenyl)-1H-pyrrolo[2,3-b]pyridin-6-yl)cyclopropanecarboxamide] and Cn1cncc1S(=O)(=O)Nc1ccc(-c2cc(NC(=O)C3CC3)nc3[nH]ccc23)cc1 [Example 15, N-(4-(4-((1-methyl-1H-imidazole)-5-sulfonamido)phenyl)-1H-pyrrolo[2,3-b]pyridin-6-yl)cyclopropanecarboxamide] fall in the same range of IC50: 20 to 200 nM for the first, 20 to 200 nM for the second.

O=C(Nc1cc(-c2ccc(NS(=O)(=O)CCCF)c(F)c2)c2cc[nH]c2n1)C1CC1 [Example 76, N-(4-(3-fluoro-4-((3-fluoropropyl)sulfonamido)phenyl)-1H-pyrrolo[2,3-b]pyridin-6-yl)cyclopropanecarboxamide] and O=C(NCC(F)(F)F)c1ccc(-c2cc(NC(=O)C3CC3)nc3[nH]ccc23)cc1 [Example 524, 4-(6-(cyclopropanecarboxamido)-1H-pyrrolo[2,3-b]pyridin-4-yl)-N-(2,2,2-trifluoroethyl)benzamide] cannot be ordered by IC50: < 20 nM for the first, < 20 nM for the second.

O=C(Nc1cc(C2=CC3CCCC(C2)N3C(=O)c2cccc(Br)c2)c2cc[nH]c2n1)C1CC1 (stereo not drawn) [Example 371, N-(4-(9-(3-bromobenzoyl)-9-azabicyclo[3.3.1]non-2-en-3-yl)-1H-pyrrolo[2,3-b]pyridin-6-yl)cyclopropanecarboxamide] and COc1cccc(C(=O)N2CC=C(c3cc(NC(=O)C4CC4)nc4[nH]ccc34)C(C)C2)c1 (stereo not drawn) [Example 330, N-(4-(1-(3-methoxybenzoyl)-3-methyl-1,2,3,6-tetrahydropyridin-4-yl)-1H-pyrrolo[2,3-b]pyridin-6-yl)cyclopropanecarboxamide] fall in the same range of IC50: 20 to 200 nM for the first, 20 to 200 nM for the second.

O=C(Cc1ccc(-c2cc(NC(=O)C3CC3)nc3[nH]ccc23)cc1)NC1CCS(=O)(=O)C1 (stereo not drawn) [Example 538, N-(4-(4-(2-((1,1-dioxidotetrahydrothiophen-3-yl)amino)-2-oxoethyl)phenyl)-1H-pyrrolo[2,3-b]pyridin-6-yl)cyclopropanecarboxamide] and Cc1cc(C(=O)NCC#N)ccc1-c1cc(NC(=O)C2CC2)nc2[nH]ccc12 [Example 526, N-(cyanomethyl)-4-(6-(cyclopropanecarboxamido)-1H-pyrrolo[2,3-b]pyridin-4-yl)-3-methylbenzamide] fall in the same range of IC50: 20 to 200 nM for the first, 20 to 200 nM for the second.

First: N#CCC1(N2CC=C(c3cc(NC(=O)C4CC4)nc4[nH]ccc34)CC2)CN(S(=O)(=O)C(F)(F)F)C1 [Example 619, N-(4-(1-(3-(cyanomethyl)-1-((trifluoromethyl)sulfonyl)azetidin-3-yl)-1,2,3,6-tetrahydropyridin-4-yl)-1H-pyrrolo[2,3-b]pyridin-6-yl)cyclopropanecarboxamide]
Second: Cc1nn(CCC#N)c(C)c1-c1cc(NC(=O)C2CC2)nc2[nH]ccc12 [Example 480, N-(4-(1-(2-cyanoethyl)-3,5-dimethyl-1H-pyrazol-4-yl)-1H-pyrrolo[2,3-b]pyridin-6-yl)cyclopropanecarboxamide]
The IC50 of the first is lower: < 20 nM for the first, 20 to 200 nM for the second. The first is the more potent here.

Cc1c(NC(=O)C2CC2)nc2[nH]ccc2c1C1=CCN(C(=O)OC(C)(C)C)CC1 [Example 457, tert-butyl 4-(6-(cyclopropanecarboxamido)-5-methyl-1H-pyrrolo[2,3-b]pyridin-4-yl)-3,6-dihydropyridine-1 (2H)-carboxylate] and CC(C)(C)OC(=O)N[C@H]1CCN(c2cc(NC(=O)C3CC3)nc3[nH]ccc23)C1 [Example 697, tert-butyl (S)-(1-(6-(cyclopropanecarboxamido)-1H-pyrrolo[2,3-b]pyridin-4-yl)pyrrolidin-3-yl)carbamate] cannot be ordered by IC50: > 200 nM for the first, > 200 nM for the second.
